Measured values taken from patent US11046649B2, “Compounds useful as inhibitors of indoleamine 2,3-dioxygenase and/or tryptophan dioxygenase” (Board of Regents, The University of Texas System, priority 2018, dated 2021).

Molecular target: T1, IDO1 (Homo sapiens, UniProt P14902)
T1 construct: endogenous in cells; host or cells: HeLa cells (ATCC), IDO1 induced with 10 ng/mL IFNgamma
Assay: IDO1 cell-based assay
Conditions: HeLa cells, 10 ng/mL IFNgamma, 24 hours with test compound; N-Formyl Kynurenine and L-tryptophan quantified by RFMS

T1 sequence (P14902 whole entry): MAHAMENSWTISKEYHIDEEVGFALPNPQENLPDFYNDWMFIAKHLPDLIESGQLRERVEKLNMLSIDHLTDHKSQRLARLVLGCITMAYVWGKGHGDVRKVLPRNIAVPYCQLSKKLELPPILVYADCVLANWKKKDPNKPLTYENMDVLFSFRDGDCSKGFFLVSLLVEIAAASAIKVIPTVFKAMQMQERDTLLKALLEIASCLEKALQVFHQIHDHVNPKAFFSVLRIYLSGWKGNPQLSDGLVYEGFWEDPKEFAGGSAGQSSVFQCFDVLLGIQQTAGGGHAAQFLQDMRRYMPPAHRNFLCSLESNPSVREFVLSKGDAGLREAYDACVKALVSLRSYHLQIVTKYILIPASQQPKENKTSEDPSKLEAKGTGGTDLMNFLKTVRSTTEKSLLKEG

Compound | IC50
C[C@H](C(=O)Nc1ccc(-c2ccc(F)cc2)cc1)[C@H]1[C@@H]2C[C@@H](n3cnc4cc(F)c(F)cc43)C[C@@H]21 [Example 93, (S)-2-((1R,3R,5S,6r)-3-(5,6-difluoro-1H-benzo[d]-imidazol-1-yl)bicyclo-[3.1.0]hexan-6-yl)-N-(4′-fluoro-[1,1′-biphenyl]-4-yl)propanamide] | 329 nM
CC(C(=O)NC1CCN(C(=O)OC(C)(C)C)CC1)[C@H]1[C@@H]2C[C@@H](Oc3ccnc4ccc(F)cc34)C[C@@H]21 (stereo partly drawn) [Example 94, tert-butyl 4-(2-((1R,3s,5S,6r)-3-((6-fluoroquinolin-4-yl)oxy)-bicyclo[3.1.0]hexan-6-yl)-propanamido)piperidine-1-carboxylate] | 1090 nM
CC(C(=O)Nc1nc2c(Br)cc(Cl)cc2s1)[C@H]1[C@@H]2C[C@@H](Oc3ccnc4ccc(F)cc34)C[C@@H]21 (stereo partly drawn) [Example 95, N-(4-bromo-6-chloro-benzo[d]thiazol-2-yl)-2-((1R,3s,5S,6r)-3-((6-fluoroquinolin-4-yl)-oxy)bicyclo[3.1.0]hexan-6-yl)propanamide] | 231 nM
CC(C(=O)NC12CC(c3ccc(F)cc3)(C1)C2)[C@H]1[C@@H]2C[C@@H](Oc3ccnc4ccc(F)cc34)C[C@@H]21 (stereo partly drawn) [Example 100, N-(3-(4-fluorophenyl)-bicyclo[1.1.1]pentan-1-yl)-2-((1R,3s,5S,6r)-3-((6-fluoroquinolin-4-yl)-oxy)bicyclo[3.1.0]hexan-6-yl)propanamide] | 45.3 nM
CC(C(=O)Nc1ccn(CC(F)(F)F)n1)[C@H]1[C@@H]2C[C@@H](Oc3ccnc4ccc(F)cc34)C[C@@H]21 (stereo partly drawn) [Example 105, 2-((1R,3s,5S,6r)-3-((6-fluoroquinolin-4-yl)oxy)-bicyclo[3.1.0]hexan-6-yl)-N-(1-(2,2,2-trifluoroethyl)-1H-pyrazol-3-yl)-propanamide] | 17.9 nM
CC(C(=O)Nc1nc2ccccc2[nH]1)[C@H]1[C@@H]2C[C@@H](Oc3ccnc4ccc(F)cc34)C[C@@H]21 (stereo partly drawn) [Example 107, N-(1H-benzo[d]imidazol-2-yl)-2-((1R,3s,5S,6r)-3-((6-fluoroquinolin-4-yl)oxy)-bicyclo[3.1.0]hexan-6-yl)propanamide] | 9.2 nM
CCC(C(=O)Nc1ccc(C(N)=O)cn1)[C@H]1[C@@H]2C[C@@H](Oc3ccnc4ccc(F)cc34)C[C@@H]21 (stereo partly drawn) [Example 118, 6-(2-((1R,3s,5S,6r)-3-((6-fluoroquinolin-4-yl)oxy)-bicyclo[3.1.0]hexan-6-yl)-butanamido)nicotinamide] | 21.3 nM
CCC(C(=O)Nc1ccc(-n2cncn2)cn1)[C@H]1[C@@H]2C[C@@H](Oc3ccnc4ccc(F)cc34)C[C@@H]21 (stereo partly drawn) [Example 119, N-(5-(1H-1,2,4-triazol-1-yl)pyridin-2-yl)-2-((1R,3s,5S,6r)-3-((6-fluoro-quinolin-4-yl)oxy)-bicyclo[3.1.0]hexan-6-yl)-butanamide] | 6.9 nM
CCC(C(=O)Nc1cnc(C)cn1)[C@H]1[C@@H]2C[C@@H](Oc3ccnc4ccc(F)cc34)C[C@@H]21 (stereo partly drawn) [Example 120, 2-((1R,3s,5S,6r)-3-((6-fluoroquinolin-4-yl)oxy)-bicyclo[3.1.0]hexan-6-yl)-N-(5-methylpyrazin-2-yl)-butanamide] | 1.43 nM
N#Cc1ccc(NC(=O)C(C2CC2)[C@H]2[C@@H]3C[C@@H](Oc4ccnc5ccc(F)cc45)C[C@@H]32)nc1 (stereo partly drawn) [Example 121, N-(5-cyanopyridin-2-yl)-2-cyclopropyl-2-((1R,3s,5S,6r)-3-((6-fluoroquinolin-4-yl)-oxy)bicyclo[3.1.0]hexan-6-yl)acetamide] | 1.67 nM
N#Cc1ccc(NC(=O)C(C2CC2)[C@H]2[C@@H]3C[C@@H](Oc4ccnc5ccc(F)cc45)C[C@@H]32)nn1 (stereo partly drawn) [Example 124, N-(6-cyanopyridazin-3-yl)-2-cyclopropyl-2-((1R,3s,5S,6r)-3-((6-fluoroquinolin-4-yl)oxy)-bicyclo[3.1.0]hexan-6-yl)acetamide] | 8.41 nM
O=C(O)C(C1CC1)[C@H]1[C@@H]2C[C@@H](Oc3ccnc4ccc(F)cc34)C[C@@H]21 (stereo partly drawn) [Example 127, 2-cyclopropyl-2-((1R,3s,5S,6r)-3-((6-fluoroquinolin-4-yl)oxy)-bicyclo[3.1.0]hexan-6-yl)acetic acid] | 6310 nM
CC(C(=O)NC12CC(NC(=O)CO)(C1)C2)[C@H]1[C@@H]2C[C@@H](Oc3ccnc4ccc(F)cc34)C[C@@H]21 (stereo partly drawn) [Example 129, 2-((1R,3s,5S,6r)-3-((6-fluoroquinolin-4-yl)oxy)-bicyclo[3.1.0]hexan-6-yl)-N-(3-(2-hydroxy-acetamido)bicyclo-[1.1.1]pentan-1-yl)-propanamide] | 597 nM
CC(C(=O)NC12CC(NC(=O)CC#N)(C1)C2)[C@H]1[C@@H]2C[C@@H](Oc3ccnc4ccc(F)cc34)C[C@@H]21 (stereo partly drawn) [Example 130] | 636 nM
COCC(=O)NC12CC(NC(=O)C(C)[C@H]3[C@@H]4C[C@@H](Oc5ccnc6ccc(F)cc56)C[C@@H]43)(C1)C2 (stereo partly drawn) [Example 132, 2-((1R,3s,5S,6r)-3-((6-fluoroquinolin-4-yl)oxy)-bicyclo[3.1.0]hexan-6-yl)-N-(3-(2-methoxyacetamido)-bicyclo[1.1.1]pentan-1-yl)-propanamide] | 511 nM
CC(=O)NC12CC(NC(=O)C(C)[C@H]3[C@@H]4C[C@@H](Oc5ccnc6ccc(F)cc56)C[C@@H]43)(C1)C2 (stereo partly drawn) [Example 133, N-(3-acetamidobicyclo-[1.1.1]pentan-1-yl)-2-((1R,3s,5S,6r)-3-((6-fluoro-quinolin-4-yl)oxy)bicyclo-[3.1.0]hexan-6-yl)-propanamide] | 420 nM
CC(c1nc2cc(C(F)(F)F)ccc2[nH]1)[C@H]1[C@@H]2C[C@@H](Oc3ccnc4ccc(F)cc34)C[C@@H]21 (stereo partly drawn) [Example 137, 6-fluoro-4-(((1R,3s,5S,6r)-6-(1-(5-(trifluoromethyl)-1H-benzo[d]imidazol-2-yl)-ethyl)bicyclo[3.1.0]hexan-3-yl)oxy)quinoline] | 1.2 nM
CC(C(=O)Nc1cnn(-c2ccccc2)c1)[C@H]1[C@@H]2C[C@@H](Oc3ccnc4ccc(F)cc34)C[C@@H]21 (stereo partly drawn) [Example 143, 2-((1R,3s,5S,6r)-3-((6-fluoroquinolin-4-yl)-oxy)bicyclo[3.1.0]hexan-6-yl)-N-(1-phenyl-1H-pyrazol-4-yl)propanamide] | 2.77 nM
CCC(C(=O)Nc1ccc(C#N)nn1)[C@H]1[C@@H]2C[C@@H](Oc3ccnc4ccc(F)cc34)C[C@@H]21 (stereo partly drawn) [Example 149, N-(6-cyanopyridazin-3-yl)-2-((1R,3s,5S,6r)-3-((6-fluoroquinolin-4-yl)oxy)-bicyclo[3.1.0]hexan-6-yl)butanamide] | 5.49 nM
N-(5-(1H-1,2,4-triazol-1- yl)pyridin-2-yl)-2- ((1R,3s,5S,6r)-3-((6- fluoroquinolin-4-yl)- oxy)bicyclo[3.1.0]hexan-6- yl)propanamide [Example 96] | 7.1 nM
N-(5-cyanopyridin-2-yl)-2- ((1R,3s,5S,6r)-3-((6- fluoroquinolin-4-yl)oxy)- bicyclo[3.1.0]hexan-6-yl)- propanamide [Example 58] | 2 nM
